The values that follow come from paper PMC11073913 (Archiv der Pharmazie, 2024).

Where “and” joins values, the source holds several entries; their conditions need not be identical. Equal values may be shown once. Read-outs that look alike come from different tables or passages of the source.

The target in one series is T1, ovine COX-1 (Ovis aries, UniProt P05979).
T1 sequence (P05979 25-600): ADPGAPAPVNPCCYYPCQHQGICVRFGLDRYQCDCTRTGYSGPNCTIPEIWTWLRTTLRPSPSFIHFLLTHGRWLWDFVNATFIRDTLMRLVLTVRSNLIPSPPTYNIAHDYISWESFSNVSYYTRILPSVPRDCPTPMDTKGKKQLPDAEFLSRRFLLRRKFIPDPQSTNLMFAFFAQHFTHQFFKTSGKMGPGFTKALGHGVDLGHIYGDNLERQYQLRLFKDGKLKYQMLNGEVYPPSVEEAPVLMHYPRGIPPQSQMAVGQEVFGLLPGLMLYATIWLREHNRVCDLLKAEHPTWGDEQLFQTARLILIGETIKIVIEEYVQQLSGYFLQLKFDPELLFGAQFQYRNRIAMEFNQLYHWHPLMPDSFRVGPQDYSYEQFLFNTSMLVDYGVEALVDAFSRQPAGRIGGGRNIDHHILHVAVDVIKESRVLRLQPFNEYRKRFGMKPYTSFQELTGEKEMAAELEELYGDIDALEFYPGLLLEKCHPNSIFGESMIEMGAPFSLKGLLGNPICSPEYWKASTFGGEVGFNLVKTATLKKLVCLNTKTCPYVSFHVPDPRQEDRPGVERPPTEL
The series can be described thus: In vitro COX-1 inhibitory assay. Format: biochemical.

The target of the next series is T2, human recombinant COX-2 (Homo sapiens, UniProt P35354).
T2 sequence (P35354 18-604): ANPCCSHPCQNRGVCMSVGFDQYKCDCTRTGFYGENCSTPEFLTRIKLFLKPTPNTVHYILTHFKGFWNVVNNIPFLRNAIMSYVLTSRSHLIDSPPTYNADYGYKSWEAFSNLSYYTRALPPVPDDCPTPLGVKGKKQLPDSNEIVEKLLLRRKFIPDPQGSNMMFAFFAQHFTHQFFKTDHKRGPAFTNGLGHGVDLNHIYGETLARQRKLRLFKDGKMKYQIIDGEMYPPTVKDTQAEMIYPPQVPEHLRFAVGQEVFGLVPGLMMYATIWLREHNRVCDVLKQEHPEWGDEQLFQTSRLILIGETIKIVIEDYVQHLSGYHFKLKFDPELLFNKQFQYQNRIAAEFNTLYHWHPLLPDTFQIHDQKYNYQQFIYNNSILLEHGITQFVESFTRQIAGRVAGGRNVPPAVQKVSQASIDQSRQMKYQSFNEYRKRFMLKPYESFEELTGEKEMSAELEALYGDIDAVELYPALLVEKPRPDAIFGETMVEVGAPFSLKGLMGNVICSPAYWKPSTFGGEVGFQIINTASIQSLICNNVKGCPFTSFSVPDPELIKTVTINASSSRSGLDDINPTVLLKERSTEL
Briefly: In vitro COX-2 inhibitory assay. To be noted: for Enhancement of anti-COX-2 activity by p-Cl on benzylidine: compared with unsubstituted compounds 4b, 4c, 4g, 4h respectively. Format: biochemical.

Another series addresses T3, soybean 15-LOX (Glycine max, UniProt P08170).
T3 sequence (P08170 1-839): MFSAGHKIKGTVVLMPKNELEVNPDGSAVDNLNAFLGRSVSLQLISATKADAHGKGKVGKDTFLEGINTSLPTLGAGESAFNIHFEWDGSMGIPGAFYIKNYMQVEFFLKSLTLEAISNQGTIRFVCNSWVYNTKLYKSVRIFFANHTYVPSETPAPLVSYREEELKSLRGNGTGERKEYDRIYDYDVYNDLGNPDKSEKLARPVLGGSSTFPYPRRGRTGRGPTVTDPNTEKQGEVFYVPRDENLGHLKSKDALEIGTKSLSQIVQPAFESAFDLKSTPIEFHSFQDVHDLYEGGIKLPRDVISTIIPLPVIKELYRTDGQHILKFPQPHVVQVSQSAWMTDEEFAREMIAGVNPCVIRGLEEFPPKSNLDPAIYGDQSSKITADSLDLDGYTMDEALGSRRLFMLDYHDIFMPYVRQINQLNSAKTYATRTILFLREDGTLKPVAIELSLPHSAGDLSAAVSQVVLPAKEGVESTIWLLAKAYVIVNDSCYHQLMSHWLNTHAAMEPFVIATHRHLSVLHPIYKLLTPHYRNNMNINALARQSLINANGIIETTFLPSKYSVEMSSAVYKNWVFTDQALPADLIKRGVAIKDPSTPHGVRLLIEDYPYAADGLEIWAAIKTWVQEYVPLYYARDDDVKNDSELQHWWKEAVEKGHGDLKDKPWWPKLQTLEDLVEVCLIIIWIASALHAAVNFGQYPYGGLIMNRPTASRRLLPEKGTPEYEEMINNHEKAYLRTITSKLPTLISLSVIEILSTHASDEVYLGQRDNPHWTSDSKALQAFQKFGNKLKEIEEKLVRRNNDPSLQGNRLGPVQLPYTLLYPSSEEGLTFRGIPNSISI
The series can be described thus: In vitro 15-LOX inhibitory assay. Format: biochemical.

The test system of series [1] is LPS-induced ROS production in RAW 264.7 cells. The settings on record: read-out: ROS (IC50), LPS (1 μg/mL) 18 h, mean ± SEM.
Series [2] concerns LPS-induced TNF-α production in RAW 264.7 cells. To be noted: for TNF-α level: cells treated with 25 μM compound.
Series [3] concerns LPS-induced IL-6 production in RAW 264.7 cells. To be noted: LPS-activated RAW 264.7; for IL-6 level: cells treated with 25 μM compound.
Series [4] deals with NF-κB activation in RAW 264.7 macrophages. The series can be described thus: NF-κB activation in LPS-activated RAW 264.7 macrophages. Format: cell-based, murine. To be noted: 25 μM pretreatment, Western blot. (In general: A western blot detects proteins with antibodies after separation by electrophoresis.)
A short description of another series: Cell viability assay. The settings on record: mouse, RAW 264.7 macrophage cells. Format: cell-based, murine.
In series [5] the test system is LPS-induced ROS production in RAW 264.7 cells. The series can be described thus: cells. The settings on record: Mus musculus, RAW264.7, 18 h, read-out: ROS (IC50).
Where [6] appears, read: read-out: COX1, IC50, ovine COX-1, mean ± SEM.
[7] abbreviates: read-out: 15-LOX IC50, soybean 15-LOX.

Take `O=C(CSC1=N/C(=C\c2ccccc2)C(=O)N1c1ccccc1)Nc1ccc(F)cc1` [Compound 4b, (Z)-2-[(4-Benzylidene-5-oxo-1-phenyl-4,5-dihydro-1H-imidazol-2-yl)thio]-N-(4-fluorophenyl) acetamide]: the IC50 amounted to 12.6 ± 1.78 µM on ovine COX-1 (setting [6]); 0.13 ± 0.068 µM on human recombinant COX-2 (read-out: COX2, IC50); 3.13 ± 1.49 µM at soybean 15-LOX (setting [7]); 23.8 ± 1.44 µM in [1]. Also, the “SI (Selectivity index = COX-1 IC50/COX-2 IC50)” value at human recombinant COX-2 turned out to be 99.06. In series [2] (LPS-activated RAW 264.7), this compound gave a TNF-α level of 51.63 ± 10.35 pg/mL. The IL-6 level in series [3] came out at 50.90 ± 10.35 pg/mL.
Consider `O=C(CSC1=N/C(=C\c2ccccc2)C(=O)N1c1ccccc1)Nc1ccc(Cl)cc1` [Compound 4c, (Z)-2-[(4-Benzylidene-5-oxo-1-phenyl-4,5-dihydro-1H-imidazol-2-yl)thio]-N-(4-chlorophenyl) acetamide], for which the IC50 on ovine COX-1 (setting [6]) stood at 9.12 ± 1.4 µM; on human recombinant COX-2 (read-out: COX2, IC50), 0.14 ± 0.062 µM; at soybean 15-LOX (setting [7]), 3.24 ± 1.46 µM; in series [1], 61.6 ± 1.51 µM. Besides, the “SI (Selectivity index = COX-1 IC50/COX-2 IC50)” value at human recombinant COX-2 came to 64.62. In series [2] (LPS-activated RAW 264.7), this compound returned a TNF-α level of 49.81 ± 23.20 pg/mL. The compound further gave an IL-6 level in series [3] of 49.08 ± 23.20 pg/mL.
On to `O=C(CSC1=N/C(=C\c2ccccc2)C(=O)N1c1ccccc1)Nc1ccc(Br)cc1` [Compound 4d, (Z)-2-[(4-Benzylidene-5-oxo-1-phenyl-4,5-dihydro-1H-imidazol-2-yl)thio]-N-(4-bromophenyl) acetamide], for which the IC50 at ovine COX-1 (setting [6]) stood at 8.14 ± 1.53 µM; on human recombinant COX-2 (read-out: COX2, IC50), 0.13 ± 0.071 µM; on soybean 15-LOX (setting [7]), 5.14 ± 2.48 µM; in [1] it was 62.1 ± 1.51 µM. Moreover, the “SI (Selectivity index = COX-1 IC50/COX-2 IC50)” value on human recombinant COX-2 was found to be 64.13. The TNF-α level in series [2] (LPS-activated RAW 264.7) was 27.08 pg/mL and 27.08 ± 4.22 pg/mL. In addition, in series [3], the IL-6 level is 26.35 pg/mL and 26.35 ± 4.22 pg/mL.
Take `Cc1ccc(NC(=O)CSC2=N/C(=C\c3ccccc3)C(=O)N2c2ccccc2)cc1` [Compound 4e, (Z)-2-[(4-Benzylidene-5-oxo-1-phenyl-4,5-dihydro-1H-imidazol-2-yl)thio]-N-(4-tolyl) acetamide]: the IC50 was 9.12 ± 1.4 µM at ovine COX-1 (setting [6]); 0.1 ± 0.048 µM on human recombinant COX-2 (read-out: COX2, IC50); 5.14 ± 2.48 µM on soybean 15-LOX (setting [7]); 118 ± 2.36 µM in series [1]. For the same compound, the “SI (Selectivity index = COX-1 IC50/COX-2 IC50)” value at human recombinant COX-2 is given as 90.85. Also, the TNF-α level in series [2] (LPS-activated RAW 264.7) is 58.19 ± 23.16 pg/mL. The compound also yielded an IL-6 level in [3] of 34.33 ± 1.82 pg/mL.
One may read the viability as a read-out of living cells in per cent, often relative to untreated cells. As for `COc1ccc(NC(=O)CSC2=N/C(=C\c3ccccc3)C(=O)N2c2ccccc2)cc1` [Compound 4f, (Z)-2-[(4-Benzylidene-5-oxo-1-phenyl-4,5-dihydro-1H-imidazol-2-yl)thio]-N-(4-methoxyphenyl)acetamide], the IC50 at ovine COX-1 was found to be 11 ± 1.53 µM; at human recombinant COX-2, 0.08 ± 0.04 µM; on soybean 15-LOX, 3.96 ± 1.49 µM; in series [5] it was 22.8 ± 1.32 µM. Further, at human recombinant COX-2 (COX-1 IC50/COX-2 IC50), the “SI (Selectivity index = COX-1 IC50/COX-2 IC50)” value came out at 131.59. The “LPS-mediated increase in NF-κB activation (phospho/total NF-κB)” value in series [4] is recorded as “attenuated”. The viability at 50 µM in “Cell viability assay” lay within 83 to 105%. Moreover, in series [2] (LPS-activated RAW 264.7), the “Lowering of TNF-α level” value was ~ 80%. The TNF-α level in series [2] (LPS-activated RAW 264.7) amounted to 22.94 ± 6.32 pg/mL. Besides, in series [3], the “Lowering of IL-6 level” value is ~ 80%. Besides, the IL-6 level in series [3] is 22.21 pg/mL and 22.21 ± 6.32 pg/mL.
On to `COc1cc(NC(=O)CSC2=N/C(=C\c3ccccc3)C(=O)N2c2ccccc2)cc(OC)c1OC` [Compound 4g, (Z)-2-[(4-Benzylidene-5-oxo-1-phenyl-4,5-dihydro-1H-imidazol-2-yl)thio]-N-(3,4,5-trimethoxyphenyl) acetamide], for which the IC50 at ovine COX-1 (setting [6]) is 9.83 ± 1.65 µM; at human recombinant COX-2 (read-out: COX2, IC50), 0.14 ± 0.073 µM; on soybean 15-LOX (setting [7]) it was 2.82 ± 1.27 µM; in series [1], 65.9 ± 1.55 µM. The “SI (Selectivity index = COX-1 IC50/COX-2 IC50)” value at human recombinant COX-2 came out at 68.07. In [2] (LPS-activated RAW 264.7), the TNF-α level was 12.23 pg/mL and 12.23 ± 3.09 pg/mL. In addition, the “TNF-α inhibition, fold more potent than celecoxib” value in series [2] (vs celecoxib) is on record as approximately 2 fold. The compound further had an IL-6 level in series [3] of 11.51 ± 3.09 pg/mL.
As for `O=C(CSC1=N/C(=C\c2ccc(Cl)cc2)C(=O)N1c1ccccc1)Nc1ccc(F)cc1` [Compound 4k, (Z)-2-{[4-(4-Chlorobenzylidene)-5-oxo-1-phenyl-4,5-dihydro-1H-imidazol-2-yl]thio}-N-(4-fluorophenyl)acetamide], the IC50 on ovine COX-1 came to 13 ± 1.82 µM; at human recombinant COX-2, 0.07 ± 0.034 µM; at soybean 15-LOX, 2.17 ± 1.04 µM; in series [5], 71 ± 1.55 µM. The “SI (Selectivity index = COX-1 IC50/COX-2 IC50)” value at human recombinant COX-2 (COX-1 IC50/COX-2 IC50) amounted to 186.28. The “Enhancement of anti-COX-2 activity by p-Cl on benzylidine” value on human recombinant COX-2 was determined as 1.85 folds. The viability at 50 µM in “Cell viability assay” was 83 to 105%. This compound had a TNF-α level in [2] (LPS-activated RAW 264.7) of 28.29 ± 14.76 pg/mL. For the same compound, the IL-6 level in [3] is given as 27.57 ± 14.76 pg/mL.
Turning to `O=C(CSC1=N/C(=C\c2ccc(Cl)cc2)C(=O)N1c1ccccc1)Nc1ccc(Cl)cc1` [Compound 4l, (Z)-2-{[4-(4-Chlorobenzylidene)-5-oxo-1-phenyl-4,5-dihydro-1H-imidazol-2-yl]thio}-N-(4-chlorophenyl)acetamide], the IC50 against ovine COX-1 stood at 12.3 ± 1.84 µM; at human recombinant COX-2, 0.08 ± 0.035 µM; against soybean 15-LOX, 2.69 ± 1.29 µM; in [5], 52.7 ± 1.35 µM. Also, the “SI (Selectivity index = COX-1 IC50/COX-2 IC50)” value at human recombinant COX-2 (COX-1 IC50/COX-2 IC50) is given as 154.73. Further, the “Enhancement of anti-COX-2 activity by p-Cl on benzylidine” value on human recombinant COX-2 was found to be 1.75 folds. Moreover, the “LPS-mediated increase in NF-κB activation (phospho/total NF-κB)” value in [4] was “attenuated”. Also, the viability at 50 µM in “Cell viability assay” was in the range of 83 to 105%. The TNF-α level in [2] (LPS-activated RAW 264.7) is 26.47 ± 5.33 pg/mL. The IL-6 level in [3] is 25.57 pg/mL and 25.75 ± 5.33 pg/mL.
